# Measurements as given in patent US9382294B2, “Broad spectrum antibiotic compounds and use thereof” (Los Alamos National Security, LLC, priority 2013, dated 2016).
# Where a name gives a salt, the structure may show the parent alone. Read-outs that look alike come from different tables or passages of the source.
# What was measured:
# K. pneumoniae ATCC 43816 = experiment: MIC of more highly purified compounds (Table 3); type: cell-based
# Description: (§1) MIC was further evaluated using EtOAc extracts of more highly purified Compound #1 and Compound #2. MIC of these compounds was compared to ACHN-490 (Plazomicin; an aminoglycoside effective primarily against Gram-negative bacteria), Colistin (a polymyxin antibiotic effective against most Gram-negative bacilli), and Meropenem (an ultra broad-spectrum, beta-lactam antibiotic).
# S. enterica ATCC 14028 [1] = experiment: MIC of more highly purified compounds (Table 3); type: cell-based
# Description: as §1
# [2] = tested on: S. aureus (MRSA) ATCC 33591; experiment: MIC of more highly purified compounds (Table 3); type: cell-based; conditions: EtOAc extracts of more highly purified compounds
# Description: as §1
# A. baumannii ATCC 19606 = experiment: MIC of more highly purified compounds (Table 3); type: cell-based
# Description: as §1
# C. difficile ATCC 700057 = experiment: MIC broth dilution assay (Table 2); type: cell-based, Clostridium difficile; conditions: Clostridioides difficile
# Description: (§2) Stocks of test compounds and standards were diluted 1:100 to provide working stocks in each growth medium. For P. aeruginosa, S. enterica and S. aureus, eleven serial, one-half dilutions of the compounds and standards were prepared in 96-well polypropylene dilution blocks in cation-adjusted Mueller Hinton broth (CAMHB). The dilutions were transferred to 96-well assay plates. […] Bacterial suspensions were prepared and added to each well at a concentration of approximately 5×10^5 colony-forming-units per milliliter. […] At the completion of incubation the wells of each plate were evaluated visually for the presence of bacterial growth. The MIC was the concentration at which there was no growth. MICs against H. influenzae, S. pneumoniae and C. difficile were determined similarly, but dilutions were prepared directly in the 96-well assay plates and MIC parameters were as indicated below (Table 1). [table]
# [3] = radio-HPLC of C. thermocellum culture fed 14C-labelled amino acids (water solubility of metabolite); type: physicochemical; conditions: no new peak in radio-HPLC of culture
# Description: C. thermocellum was grown anaerobically in cellulose-containing medium. ^14C-labelled amino acids (^14C-L-Asp, ^14C-L-Leu and ^14C-L-Ile) were added to the culture media and radio-HPLC was performed. […] The orange suspension was centrifuged, the liquid layer separated from the cells and the DMSO was removed under reduced pressure. The final yield from this process was 14.7 mg.
# H. influenzae ATCC 49247 [4] = experiment: MIC broth dilution assay (Table 2); type: cell-based; conditions: ATCC49247, Haemophilus Test Medium Broth, 20-24 h, read-out: Minimum inhibitory concentration (MIC)
# Description: as §2, with “growth.” for “growth. MICs against H. influenzae, S. pneumoniae and C. difficile were determined similarly, but dilutions were prepared directly in the 96-well assay plates and MIC parameters were as indicated below (Table 1). [table]”
# S. enterica ATCC 14028 [5] = experiment: MIC broth dilution assay (Table 2); type: cell-based; conditions: Salmonella enterica, ATCC14028, CAMHB, 16-20 h, 35° C., read-out: Minimum inhibitory concentration (MIC)
# Description: (§3) Stocks of test compounds and standards were diluted 1:100 to provide working stocks in each growth medium. For P. aeruginosa, S. enterica and S. aureus, eleven serial, one-half dilutions of the compounds and standards were prepared in 96-well polypropylene dilution blocks in cation-adjusted Mueller Hinton broth (CAMHB). The dilutions were transferred to 96-well assay plates. […] Bacterial suspensions were prepared and added to each well at a concentration of approximately 5×10^5 colony-forming-units per milliliter. The inoculated plates were incubated for 16-20 hours at 35±1° C. At the completion of incubation the wells of each plate were evaluated visually for the presence of bacterial growth. The MIC was the concentration at which there was no growth.
# P. aeruginosa ATCC 27853 = experiment: MIC broth dilution assay (Table 2); type: cell-based; conditions: Pseudomonas aeruginosa, ATCC27853, CAMHB, 16-20 h, 35° C., read-out: Minimum inhibitory concentration (MIC)
# Description: as §3
# S. pneumoniae ATCC 49619 [6] = experiment: MIC of more highly purified compounds (Table 3); type: cell-based; conditions: Streptococcus pneumoniae, ATCC49619, EtOAc extracts of more highly purified compounds
# Description: as §1
# C. difficile ATCC 70057 = experiment: MIC of more highly purified compounds (Table 3); type: cell-based; conditions: Clostridioides difficile, ATCC70057, EtOAc extracts of more highly purified compounds
# Description: as §1
# H. influenzae ATCC 49247 [7] = experiment: MIC of more highly purified compounds (Table 3); type: cell-based; conditions: Haemophilus influenzae, ATCC49247, EtOAc extracts of more highly purified compounds
# Description: as §1
# S. pneumoniae ATCC 49619 [8] = experiment: MIC broth dilution assay (Table 2); type: cell-based; conditions: Streptococcus pneumoniae, ATCC49619, CAMHB + LHB, 20-24 h, read-out: Minimum inhibitory concentration (MIC)
# Description: as §2
# [9] = Maximum Tolerated Dose (MTD) study; type: in vivo; conditions: CD-1 mice; subcutaneous 20, 40 or 80 mg/kg; observed 1 hour, 24 hours and 48 hours
# Description: MTD studies were performed for Compound #1, Compound #2 and Compound #3. CD-1 mice, 6-8 weeks of age, were used for these studies. Groups of three mice were injected subcutaneously with 20 mg/kg, 40 mg/kg or 80 mg/kg of Compound #1, Compound #2 or Compound #3 Animals were observed 1 hour, 24 hours and 48 hours after administration of compound.
# E. coli K-12 = experiment: bacterial growth inhibition assay (cellulose disks); type: cell-based; conditions: 0.85 μg on 6 mm cellulose disk
# Description: (§4) To evaluate the antibiotic properties of the compounds produced by the NRPS cluster, Compound #1 or Compound #2 (0.85 μg) was diluted in 2 μl DMSO and soaked onto 6 mm cellulose disks for a bacterial growth inhibition assay.
# E. coli (ATCC 25922) = experiment: as above; type: cell-based; conditions: 0.85 μg on 6 mm cellulose disk
# Description: as §4
# [10] = tested on: Listeria grayi (ATCC 19120); experiment: as above; type: cell-based; conditions: 0.85 μg on 6 mm cellulose disk
# Description: as §4
# [11] = tested on: Staphylococcus aureus (ATCC 2913); experiment: as above; type: cell-based; conditions: 0.85 μg on 6 mm cellulose disk
# Description: as §4
# Bacillus subtilis PY79 = experiment: as above; type: cell-based; conditions: 0.85 μg on 6 mm cellulose disk
# Description: as §4
# [12] = tested on: Acinetobacter baumannii (ATCC 17904); experiment: as above; type: cell-based; conditions: 0.85 μg on 6 mm cellulose disk
# Description: as §4
# [13] = tested on: Pseudomonas putida (ATCC 11172); experiment: as above; type: cell-based; conditions: 0.85 μg on 6 mm cellulose disk
# Description: as §4
# HeLa cells = experiment: in vitro cell toxicology assay; type: cell-based, human
# Description: (§5) In vitro cell toxicology assays were performed to evaluate the effect of Compound #1 on human cells. Compound #1, dissolved in DMSO, was added to vital cultures of HeLa cells and peripheral blood mononuclear cells (PMBC) one day after the cell cultures were started. For each cell line, pure DMSO (control #1), no DMSO (control #2) and Compound #1 in one times (T1-5 nM), five times (T5-25 nM) and ten times (T10-50 nM) of the bacteria-toxic concentration was added to the cell cultures for two sets each. All ten culture flasks per cell line (2×: T1, T5, T10, […]#2) were incubated under identical conditions and simple cell counts were performed on days two, four and six while replacing the cell culture medium to maintain the concentration of Compound #1.
# [14] = tested on: peripheral blood mononuclear cells (PMBC); experiment: in vitro cell toxicology assay; type: cell-based, human; conditions: 5, 25, 50 nM
# Description: as §5
# [15] = EtOAc extracts of more highly purified compounds
# [16] = Salmonella enterica, ATCC14028, EtOAc extracts of more highly purified compounds, read-out: MIC
# [17] = Staphylococcus aureus, read-out: MIC
# [18] = Acinetobacter baumannii, ATCC19606, EtOAc extracts of more highly purified compounds, read-out: MIC
compound,measurement,setting,value
Colistin,MIC,K. pneumoniae ATCC 43816; [15],0.12 µg/mL
same,MIC,S. enterica ATCC 14028 [1]; [15],>32 µg/mL
same,MIC,[2],32 µg/mL
same,MIC,A. baumannii ATCC 19606; [15],>32 µg/mL
"CN[C@H](CC(C)C)C(=O)N[C@H]1C(=O)N[C@@H](CC(N)=O)C(=O)N[C@H]2C(=O)N[C@H]3C(=O)N[C@H](C(=O)N[C@H](C(=O)O)c4cc(O)cc(O)c4-c4cc3ccc4O)[C@H](O)c3ccc(c(Cl)c3)Oc3cc2cc(c3O[C@@H]2O[C@H](CO)[C@@H](O)[C@H](O)[C@H]2O[C@H]2C[C@](C)(N)[C@H](O)[C@H](C)O2)Oc2ccc(cc2Cl)[C@H]1O [VAN, vancomycin hydrochloride, reference compound]",MIC,"C. difficile ATCC 700057; ATCC700057, read-out: Minimum inhibitory concentration (MIC)",0.25 µg/mL
CCC(C)C1N[C@@H]2OC[C@H](OC(=O)C(CC=O)NC1=O)[C@H](O[C@@H]1OC[C@@H](O)[C@H](O)[C@@H]1O)[C@@H]2O (stereo partly shown) [Compound #1],water solubility,[3],water insoluble
same,MIC,H. influenzae ATCC 49247 [4],2 µg/mL
same,MIC,S. enterica ATCC 14028 [5],> 128 µg/mL
same,MIC,P. aeruginosa ATCC 27853,> 128 µg/mL
same,MIC,S. pneumoniae ATCC 49619 [6],16 µg/mL
same,MIC,"K. pneumoniae ATCC 43816; Klebsiella pneumoniae, ATCC43816, EtOAc extracts of more highly purified compounds, read-out: MIC",8 µg/mL
same,MIC,S. enterica ATCC 14028 [1]; [16],16 µg/mL
same,MIC,[2]; [17],16 µg/mL
same,MIC,C. difficile ATCC 70057,16 µg/mL
same,MIC,A. baumannii ATCC 19606; [18],8 µg/mL
same,MIC,H. influenzae ATCC 49247 [7],0.5 µg/mL
same,MIC,S. pneumoniae ATCC 49619 [8],64 µg/mL
same,signs of illness (MTD study),[9],No signs of illness
same,bacterial growth inhibition,E. coli K-12,significantly inhibited bacterial growth
same,bacterial growth inhibition,E. coli (ATCC 25922),significantly inhibited bacterial growth
same,bacterial growth inhibition,[10],significantly inhibited bacterial growth
same,bacterial growth inhibition,[11],significantly inhibited bacterial growth
same,bacterial growth inhibition,Bacillus subtilis PY79,significantly inhibited bacterial growth
same,bacterial growth inhibition,[12],significantly inhibited bacterial growth
same,bacterial growth inhibition,[13],significantly inhibited bacterial growth
same,MIC,"C. difficile ATCC 700057; ATCC700057, C. difficile ATCC 700057, Supplemented Brucella Broth + LHB, anaerobic, 46-48 h, read-out: Minimum inhibitory concentration (MIC)",32 µg/mL
same,changes in physical appearance of cell line,"HeLa cells; 5, 25, 50 nM",no changes in physical appearance
same,pyrogenic reactions,"HeLa cells; 5, 25, 50 nM",No pyrogenic reactions
same,"variation of death rates, treated vs untreated cell cultures","HeLa cells; 5, 25, 50 nM, cell counts on days two, four and six",less than 5%
same,proliferation rate,HeLa cells; T10 (50 nM),slightly reduced
same,changes in physical appearance of cell line,[14],no changes in physical appearance
same,pyrogenic reactions,[14],No pyrogenic reactions
same,"variation of death rates, treated vs untreated cell cultures","[14]; cell counts on days two, four and six",less than 5%
C[C@@H](O)[C@H]1C(=O)N2C(C(=O)O)=C(S[C@@H]3CN[C@H](C(=O)N(C)C)C3)[C@H](C)[C@H]12 [Meropenem],MIC,S. enterica ATCC 14028 [1]; [16],> 16 µg/mL
same,MIC,[2]; [17],> 16 µg/mL
same,MIC,A. baumannii ATCC 19606; [18],1 µg/mL
"CN[C@@H]1[C@@H](O)[C@@H](O[C@@H]2[C@@H](O)[C@H](O[C@H]3OC(CNCCO)=CC[C@H]3N)[C@@H](N)C[C@H]2NC(=O)[C@@H](O)CCN)OC[C@]1(C)O [ACHN-490, Plazomicin]",MIC,A. baumannii ATCC 19606; [18],8 µg/mL
